# Read-outs that look alike come from different tables or passages of the source.
# How the values were obtained:
# Experiment in all cases: Test F pre-/postemergence plant response
# Format in all cases: in vivo
# [1] = tested on: field bindweed (Convolvulus arvensis); conditions: scale 0 to 100; for pest or weed control at 31 g/ha / pest or weed control at 62 g/ha: Convolvulus arvensis, read-out: Plant response rating, Field Bindweed
# Summary of the method: (§1)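 Values are visual ratings, where 100 is complete control and 0 is no effect, given after 14 to 21 days of greenhouse growth. Test chemicals in a non-phytotoxic, surfactant-containing solvent were sprayed on soil just after planting or on emerged seedlings at the 1- to 4-leaf stage.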
# corn (Zea mays) = conditions: scale 0 to 100; for Corn plant response rating (crop injury, 0 = no effect, 100 = complete kill) at 31 g/ha / Corn plant response rating (crop injury, 0 = no effect, 100 = complete kill) at 62 g/ha: Zea mays
# Summary of the method: as §1
# kochia (Kochia scoparia) = conditions: scale 0 to 100; for pest or weed control at 31 g/ha / pest or weed control at 62 g/ha: Bassia scoparia, read-out: Plant response rating, Kochia; for pest or weed control at 31 g/ha: 31 g ai/ha
# Summary of the method: as §1
# soybean (Glycine max) = conditions: scale 0 to 100; for plant injury at 31 g/ha / plant injury at 62 g/ha: Glycine max, read-out: Plant response rating, Soybean
# Summary of the method: as §1
# [2] = tested on: fall panicum (Panicum dichotomiflorum); conditions: scale 0 to 100; for pest or weed control at 31 g/ha / pest or weed control at 62 g/ha: Panicum dichotomiflorum, read-out: Plant response rating, Panicum, Fall
# Summary of the method: as §1
# [3] = tested on: palmer pigweed (Amaranthus palmeri); conditions: scale 0 to 100; for pest or weed control at 31 g/ha / pest or weed control at 62 g/ha: Amaranthus palmeri, read-out: Plant response rating, Pigweed, Palmer
# Summary of the method: as §1
# [4] = tested on: velvetleaf (Abutilon theophrasti); conditions: scale 0 to 100
# Summary of the method: as §1
# [5] = tested on: goosegrass (Eleusine indica); conditions: scale 0 to 100
# Summary of the method: as §1
# [6] = tested on: surinam grass (Brachiaria decumbens); conditions: scale 0 to 100
# Summary of the method: as §1
# [7] = tested on: arrowleaf sida (Sida rhombifolia); conditions: scale 0 to 100; for pest or weed control at 31 g/ha / pest or weed control at 62 g/ha: Sida rhombifolia, read-out: Plant response rating, Arrowleaf Sida
# Summary of the method: as §1
# [8] = tested on: giant foxtail (Setaria faberii); conditions: scale 0 to 100
# Summary of the method: as §1
# [9] = post-emergence, 31 g ai/ha Postemergence
# [10] = post-emergence, 62 g ai/ha Postemergence
# [11] = pre-emergence, 31 g ai/ha Preemergence
# [12] = pre-emergence, 62 g ai/ha Preemergence
smiles,measurement,setting,value
"Fc1cccc(Oc2ncc(Cl)cn2)c1-c1cc(C(F)F)on1 [Compound 55, 5-chloro-2-[2-[5-(difluoromethyl)-3-isoxazolyl]-3-fluorophenoxy]pyrimidine]",pest or weed control at 31 g/ha,[1]; [9],25%
same,pest or weed control at 62 g/ha,[1]; [10],70%
same,pest or weed control at 31 g/ha,[1]; [11],0%
same,pest or weed control at 62 g/ha,[1]; [12],10%
same,"Corn plant response rating (crop injury, 0 = no effect, 100 = complete kill) at 31 g/ha",corn (Zea mays); [9],15%
same,"Corn plant response rating (crop injury, 0 = no effect, 100 = complete kill) at 62 g/ha",corn (Zea mays); [10],20%
same,"Corn plant response rating (crop injury, 0 = no effect, 100 = complete kill) at 31 g/ha",corn (Zea mays); [11],0%
same,"Corn plant response rating (crop injury, 0 = no effect, 100 = complete kill) at 62 g/ha",corn (Zea mays); [12],40%
same,pest or weed control at 31 g/ha,"kochia (Kochia scoparia); post-emergence, Postemergence",95%
same,pest or weed control at 62 g/ha,"kochia (Kochia scoparia); post-emergence, 62 g ai/ha, Postemergence",98%
same,pest or weed control at 31 g/ha,"kochia (Kochia scoparia); pre-emergence, Preemergence",100%
same,pest or weed control at 62 g/ha,"kochia (Kochia scoparia); pre-emergence, Preemergence",100%
same,plant injury at 31 g/ha,soybean (Glycine max); [9],70%
same,plant injury at 62 g/ha,soybean (Glycine max); [10],95%
same,plant injury at 31 g/ha,soybean (Glycine max); [11],40%
same,plant injury at 62 g/ha,"soybean (Glycine max); pre-emergence, Preemergence",50%
same,pest or weed control at 31 g/ha,[2]; [9],40%
same,pest or weed control at 62 g/ha,[2]; [10],30%
same,pest or weed control at 31 g/ha,[2]; [11],90%
same,pest or weed control at 62 g/ha,"[2]; pre-emergence, Preemergence",100%
same,pest or weed control at 31 g/ha,[3]; [9],98%
same,pest or weed control at 62 g/ha,[3]; [10],98%
same,pest or weed control at 31 g/ha,[3]; [11],75%
same,pest or weed control at 62 g/ha,"[3]; pre-emergence, Preemergence",100%
same,pest or weed control at 31 g/ha,"[4]; Abutilon theophrasti, pre-emergence, 31 g ai/ha Preemergence, read-out: Plant response rating, Velvetleaf",100%
same,pest or weed control at 62 g/ha,"[4]; Abutilon theophrasti, pre-emergence, Preemergence, read-out: Plant response rating, Velvetleaf",100%
same,pest or weed control at 31 g/ha,"[5]; Eleusine indica, pre-emergence, 31 g ai/ha Preemergence, read-out: Plant response rating, Goosegrass",5%
same,pest or weed control at 62 g/ha,"[5]; Eleusine indica, pre-emergence, Preemergence, read-out: Plant response rating, Goosegrass",50%
same,pest or weed control at 31 g/ha,"[6]; Urochloa decumbens, pre-emergence, 31 g ai/ha Preemergence, read-out: Plant response rating, Surinam Grass",0%
same,pest or weed control at 62 g/ha,"[6]; Urochloa decumbens, pre-emergence, Preemergence, read-out: Plant response rating, Surinam Grass",10%
same,pest or weed control at 31 g/ha,[7]; [9],95%
same,pest or weed control at 62 g/ha,[7]; [10],100%
same,pest or weed control at 31 g/ha,[7]; [11],98%
same,pest or weed control at 62 g/ha,[7]; [12],100%
same,pest or weed control at 31 g/ha,"[8]; Setaria faberi, pre-emergence, 31 g ai/ha Preemergence, read-out: Plant response rating, Foxtail, Giant",90%
same,pest or weed control at 62 g/ha,"[8]; Setaria faberi, pre-emergence, 62 g ai/ha Preemergence, read-out: Plant response rating, Foxtail, Giant",98%
Cc1cc(-c2ccccc2Oc2ncc(Cl)cn2)on1 [Compound 58],"Plant response rating, Field Bindweed",[1]; 8 g ai/ha Postemergence,10
same,"Plant response rating, Field Bindweed",[1]; 8 g ai/ha Preemergence,0
same,"Plant response rating, Field Bindweed",[1]; 16 g ai/ha Postemergence,10
same,"Plant response rating, Field Bindweed",[1]; 16 g ai/ha Preemergence,0
same,"Plant response rating, Field Bindweed",[1]; 31 g ai/ha Postemergence,20
same,"Plant response rating, Field Bindweed",[1]; 31 g ai/ha Preemergence,0
same,"Plant response rating, Field Bindweed",[1]; 62 g ai/ha Postemergence,30
same,"Plant response rating, Field Bindweed",[1]; 62 g ai/ha Preemergence,0
same,"Plant response rating, Field Bindweed",[1]; 125 g ai/ha Postemergence,50
same,"Plant response rating, Field Bindweed",[1]; 125 g ai/ha Preemergence,0
same,"Plant response rating, Corn",corn (Zea mays); 8 g ai/ha Postemergence,0
same,"Plant response rating, Corn",corn (Zea mays); 8 g ai/ha Preemergence,0
same,"Plant response rating, Corn",corn (Zea mays); 16 g ai/ha Postemergence,0
same,"Plant response rating, Corn",corn (Zea mays); 16 g ai/ha Preemergence,0
same,"Plant response rating, Corn",corn (Zea mays); 31 g ai/ha Postemergence,0
same,"Plant response rating, Corn",corn (Zea mays); 31 g ai/ha Preemergence,0
same,"Plant response rating, Corn",corn (Zea mays); 62 g ai/ha Postemergence,5
same,"Plant response rating, Corn",corn (Zea mays); 62 g ai/ha Preemergence,0
same,"Plant response rating, Corn",corn (Zea mays); 125 g ai/ha Postemergence,5
same,"Plant response rating, Corn",corn (Zea mays); 125 g ai/ha Preemergence,0
same,"Plant response rating, Kochia",kochia (Kochia scoparia); 8 g ai/ha Postemergence,30
same,"Plant response rating, Kochia",kochia (Kochia scoparia); 8 g ai/ha Preemergence,0
same,"Plant response rating, Kochia",kochia (Kochia scoparia); 16 g ai/ha Postemergence,40
same,"Plant response rating, Kochia",kochia (Kochia scoparia); 16 g ai/ha Preemergence,0
same,"Plant response rating, Kochia",kochia (Kochia scoparia); 31 g ai/ha Postemergence,30
same,"Plant response rating, Kochia",kochia (Kochia scoparia); 31 g ai/ha Preemergence,0
same,"Plant response rating, Kochia",kochia (Kochia scoparia); 62 g ai/ha Postemergence,60
same,"Plant response rating, Kochia",kochia (Kochia scoparia); 125 g ai/ha Postemergence,75
same,"Plant response rating, Kochia",kochia (Kochia scoparia); 125 g ai/ha Preemergence,30
same,"Plant response rating, Kochia",kochia (Kochia scoparia); Preemergence,0
same,"Plant response rating, Soybean",soybean (Glycine max); 8 g ai/ha Postemergence,50
same,"Plant response rating, Soybean",soybean (Glycine max); 8 g ai/ha Preemergence,0
same,"Plant response rating, Soybean",soybean (Glycine max); 16 g ai/ha Postemergence,50
same,"Plant response rating, Soybean",soybean (Glycine max); 16 g ai/ha Preemergence,10
same,"Plant response rating, Soybean",soybean (Glycine max); 31 g ai/ha Postemergence,70
same,"Plant response rating, Soybean",soybean (Glycine max); 31 g ai/ha Preemergence,20
same,"Plant response rating, Soybean",soybean (Glycine max); 62 g ai/ha Postemergence,90
same,"Plant response rating, Soybean",soybean (Glycine max); 125 g ai/ha Postemergence,95
same,"Plant response rating, Soybean",soybean (Glycine max); 125 g ai/ha Preemergence,75
same,"Plant response rating, Soybean",soybean (Glycine max); Preemergence,35
same,"Plant response rating, Panicum, Fall",[2]; 8 g ai/ha Postemergence,15
same,"Plant response rating, Panicum, Fall",[2]; 8 g ai/ha Preemergence,0
same,"Plant response rating, Panicum, Fall",[2]; 16 g ai/ha Postemergence,0
same,"Plant response rating, Panicum, Fall",[2]; 16 g ai/ha Preemergence,35
same,"Plant response rating, Panicum, Fall",[2]; 31 g ai/ha Postemergence,0
same,"Plant response rating, Panicum, Fall",[2]; 31 g ai/ha Preemergence,65
same,"Plant response rating, Panicum, Fall",[2]; 62 g ai/ha Postemergence,10
same,"Plant response rating, Panicum, Fall",[2]; 125 g ai/ha Postemergence,15
same,"Plant response rating, Panicum, Fall",[2]; 125 g ai/ha Preemergence,100
same,"Plant response rating, Panicum, Fall",[2]; Preemergence,90
same,"Plant response rating, Pigweed, Palmer",[3]; 8 g ai/ha Postemergence,50
same,"Plant response rating, Pigweed, Palmer",[3]; 8 g ai/ha Preemergence,0
same,"Plant response rating, Pigweed, Palmer",[3]; 16 g ai/ha Postemergence,50
same,"Plant response rating, Pigweed, Palmer",[3]; 16 g ai/ha Preemergence,0
same,"Plant response rating, Pigweed, Palmer",[3]; 31 g ai/ha Postemergence,50
same,"Plant response rating, Pigweed, Palmer",[3]; 31 g ai/ha Preemergence,0
same,"Plant response rating, Pigweed, Palmer",[3]; 62 g ai/ha Postemergence,70
same,"Plant response rating, Pigweed, Palmer",[3]; 125 g ai/ha Postemergence,60
same,"Plant response rating, Pigweed, Palmer",[3]; 125 g ai/ha Preemergence,35
same,"Plant response rating, Pigweed, Palmer",[3]; Preemergence,35
same,"Plant response rating, Velvetleaf",[4]; 8 g ai/ha Preemergence,20
same,"Plant response rating, Velvetleaf",[4]; 16 g ai/ha Preemergence,70
same,"Plant response rating, Velvetleaf",[4]; 31 g ai/ha Preemergence,100
same,"Plant response rating, Velvetleaf",[4]; 125 g ai/ha Preemergence,100
same,"Plant response rating, Velvetleaf",[4]; Preemergence,100
same,"Plant response rating, Goosegrass",[5]; 8 g ai/ha Preemergence,0
same,"Plant response rating, Goosegrass",[5]; 16 g ai/ha Preemergence,0
same,"Plant response rating, Goosegrass",[5]; 31 g ai/ha Preemergence,5
same,"Plant response rating, Goosegrass",[5]; 125 g ai/ha Preemergence,75
same,"Plant response rating, Goosegrass",[5]; Preemergence,5
same,"Plant response rating, Surinam Grass",[6]; 8 g ai/ha Preemergence,0
same,"Plant response rating, Surinam Grass",[6]; 16 g ai/ha Preemergence,0
same,"Plant response rating, Surinam Grass",[6]; 31 g ai/ha Preemergence,0
same,"Plant response rating, Surinam Grass",[6]; 125 g ai/ha Preemergence,0
same,"Plant response rating, Surinam Grass",[6]; Preemergence,0
same,"Plant response rating, Arrowleaf Sida",[7]; 8 g ai/ha Postemergence,50
same,"Plant response rating, Arrowleaf Sida",[7]; 8 g ai/ha Preemergence,20
same,"Plant response rating, Arrowleaf Sida",[7]; 16 g ai/ha Postemergence,70
same,"Plant response rating, Arrowleaf Sida",[7]; 16 g ai/ha Preemergence,0
same,"Plant response rating, Arrowleaf Sida",[7]; 31 g ai/ha Postemergence,60
same,"Plant response rating, Arrowleaf Sida",[7]; 31 g ai/ha Preemergence,35
same,"Plant response rating, Arrowleaf Sida",[7]; 62 g ai/ha Postemergence,75
same,"Plant response rating, Arrowleaf Sida",[7]; 62 g ai/ha Preemergence,75
same,"Plant response rating, Arrowleaf Sida",[7]; 125 g ai/ha Postemergence,90
same,"Plant response rating, Arrowleaf Sida",[7]; 125 g ai/ha Preemergence,98
same,"Plant response rating, Foxtail, Giant",[8]; 8 g ai/ha Preemergence,0
same,"Plant response rating, Foxtail, Giant",[8]; 16 g ai/ha Preemergence,0
same,"Plant response rating, Foxtail, Giant",[8]; 31 g ai/ha Preemergence,0
same,"Plant response rating, Foxtail, Giant",[8]; 62 g ai/ha Preemergence,0
same,"Plant response rating, Foxtail, Giant",[8]; 125 g ai/ha Preemergence,40
